The subject of experiment [1] is Hydrilla PDS Leu^425 → Pro. Description: Fluridone enzyme inhibition assay, other substitutions (Table 3). The experiment is classed as biochemical, Hydrilla verticillata. On the procedure: (§1) To explore whether mutations at positions other than 304 of the hydrilla PDS enzyme and corresponding positions of other plant PDS enzymes also confer herbicide resistance, mutations discovered in Synechococcus strain PCC7942 (Leu^320→Pro; Val^403→Gly; Leu^436→Arg) were introduced into the hydrilla PDS sequence at the corresponding locations, and the resulting PDS enzymes tested for resistance.
(§2) Phytoene desaturase activity and its inhibition by herbicides was determined using an in vitro system using components derived from the in vivo production of phytoene and phytoene desaturase proteins. All mutations described in Examples 3 and 4 were tested. […] The clones were used for the heterologous expression of Hydrilla-PDS-enzyme. In particular, bacterial cultures were grown from single colonies overnight in Wu-broth (6.27 g/L K2HPO4, 1.8 g/L KH2PO4, 0.5 g/L Na-citrate, 0.9 g/L (NH4)2SO4, 10 g/L tryptone, 5 g/L yeast extract, 10 g/L NaCl, 44 ml/L glycerol, 0.1 mM MgSO4, pH 7.2) with kanamycin. 1-mL was aliquoted in centrifuge tube and stored at −80° C. For expression, 1 L LB-medium with kanamycin was inoculated with 1-mL Wu-culture and grown for 24 h at 37° C. to stationary phase with shaking at 200 rpm. The cells were collected by centrifugation at 2000×g. All of the following steps were done at 4° C. unless otherwise noted. Active soluble PDS enzyme was extracted by lysing the transformed E. coli cells using a French Press at 20,000 psi in assay buffer consisting of 100 mM Tris-HCl, pH 7.2, 10 mM magnesium-chloride, 0.1 mM NADP, 0.1 mM FAD, 10 mM cysteine, 5 mM DTT, 1 mM aminocaproic acid, and 1 μg/ml leupeptin. The soluble fraction containing PDS activity was obtained by centrifugation for 10 min at 1200×g. After 24 h they were centrifuged down and used in PDS enzyme activity assays as described below.
(§3) Generally, PDS protein fractions prepared as described above (Non-His-tagged and His-tagged) were mixed with a soluble fraction from phytoene-producing E. coli cells. […]

Experiment [2] concerns Hydrilla PDS Leu^542 → Arg. The description is as above. The experiment is classed as biochemical, Hydrilla verticillata. The procedure:
as §1, §2, §3

Experiment [3] deals with Hydrilla PDS Val^509 → Gly. The description is as above. The experiment is classed as biochemical, Hydrilla verticillata. On the procedure: as §1, §2, §3
Experiment [4] deals with T1, maize PDS Arg→His at position 292 (Zea mays, UniProt P49086, R292H).
T1 construct: vector-encoded N-terminal residues of pBluescript SK+ (in-frame fusion); made in house; host or cells: E. coli TOP10 (clone pMPDS3-33 from E. T. Wurtzel, mutagenised in house)
T1 sequence (P49086 97-571 R292H): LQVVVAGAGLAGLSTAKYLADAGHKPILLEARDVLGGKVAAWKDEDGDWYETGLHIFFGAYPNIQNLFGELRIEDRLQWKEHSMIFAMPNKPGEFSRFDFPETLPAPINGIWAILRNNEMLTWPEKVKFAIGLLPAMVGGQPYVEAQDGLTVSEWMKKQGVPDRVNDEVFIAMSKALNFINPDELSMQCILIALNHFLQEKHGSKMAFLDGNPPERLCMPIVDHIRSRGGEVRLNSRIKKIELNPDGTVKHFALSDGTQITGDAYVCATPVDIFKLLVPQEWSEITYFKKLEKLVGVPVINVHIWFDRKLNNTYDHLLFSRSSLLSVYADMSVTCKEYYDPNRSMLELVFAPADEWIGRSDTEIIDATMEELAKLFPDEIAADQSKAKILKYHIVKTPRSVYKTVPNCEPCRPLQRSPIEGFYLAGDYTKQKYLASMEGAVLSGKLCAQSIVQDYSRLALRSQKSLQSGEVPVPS
Description: Mutant maize PDS enzyme resistance test. The experiment is classed as biochemical. An excerpt: The same mutagenesis procedure as described in the Examples above was used to convert the same key arginine amino acid (position 292, sequence ID No. 6) to histidine in corn PDS. Mutagenesis primers are listed below. A maize cDNA clone of PDS, that actively expressed PDS (basically sequence U37285 ligated in frame into pBluescript SK^+ and cloned in TOP10-cells) was provided by Eleanore T. Wurtzel, N Y (pMPDS3-33 as described in Z H Li, P D Matthews, B Burr & E T Wurtzel: Cloning and characterization of a maize cDNA encoding phytoene desaturase, an enzyme of the carotenoid biosynthetic pathway. Plant Molecular Biology 30: 269-279, 1996).
The resulting mutant maize PDS polynucleotide and protein were tested generally as described in Example 5 above. The mutant maize PDS enzyme ehxibited 50-fold to 60-fold resistance factor as compared to the wild type maize PDS enzyme.

In experiment [5] the test system is Synechocystis PDS with mutation corresponding to Leu^542→Arg. As to conditions: prior work; cited from earlier work.

In the case of Fluridone, the R/S was 1.6 in experiment [1], 4.5 in experiment [2] and 14.5 in experiment [3]. For the same substance, the “resistance of modified maize PDS enzyme vs wild-type maize PDS enzyme” value in experiment [4] is “substantially more resistant”. Also, in experiment [5], the “resistance provided by the mutation” value was “failed to provide resistance”.

Values taken from patent publication US20110098180A1, “Herbicide-Resistant Plants, And Polynucleotides And Methods For Providing Same” (United States Department of Agriculture, priority 2002, published 2011).
